Assay results published in patent US20220162167A1, “SUBSTITUTED BICYCLIC AND TETRACYCLIC QUINONES AND USE THEREOF AS ANTI-CANCER AGENTS” (THE REGENTS OF THE UNIVERSITY OF MICHIGAN, priority 2019, published 2022).

Assays:
Assay type in all cases: cell-based
PC-3 = assay: NCI60 growth inhibition, PC-3; details: Prostate Cancer
Experimental: (§1) Representative compounds were tested in 60 cell lines (NCI60) at the National Cancer Institute, Developmental Therapeutics Program.
(§2) Representative compounds were tested in a panel of 60 cancer cells (NCI 60) at the National Cancer Institute. Growth inhibition are shown in table 2, table 3, table 4, table 5, and FIG. 1, FIG. 2, FIG. 3, FIG. 4, FIG. 5.

SK-MEL-28 = assay: NCI60 growth inhibition, SK-MEL-28; details: Melanoma
Experimental: as §1, §2

NCI/ADR-RES = assay: NCI60 growth inhibition, NCI/ADR-RES; details: Ovarian Cancer
Experimental: as §1, §2

MCF7 = assay: NCI60 growth inhibition, MCF7; details: Breast Cancer
Experimental: as §1, §2

UACC-257 = assay: NCI60 growth inhibition, UACC-257; details: Melanoma; also: test concentration or dose not given here
Experimental: as §1, §2

HCT-15 = assay: NCI60 growth inhibition, HCT-15; details: Colon Cancer; also: test concentration or dose not given here
Experimental: as §1, §2

A549/ATCC = assay: NCI60 growth inhibition, A549/ATCC; details: Non-Small Cell Lung Cancer
Experimental: as §1, §2

SK-MEL-5 = assay: NCI60 growth inhibition, SK-MEL-5; details: Melanoma
Experimental: as §1, §2

MDA-MB-435 = assay: NCI60 growth inhibition, MDA-MB-435; details: Melanoma
Experimental: as §1, §2

A498 = assay: NCI60 growth inhibition, A498; details: Renal Cancer; also: test concentration or dose not given here
Experimental: as §1, §2

MDA-MB-468 = assay: NCI60 growth inhibition, MDA-MB-468; details: Breast Cancer; also: test concentration or dose not given here
Experimental: as §1, §2

UACC-62 = assay: NCI60 growth inhibition, UACC-62; details: Melanoma; also: test concentration or dose not given here
Experimental: as §1, §2

COLO 205 = assay: NCI60 growth inhibition, COLO 205; details: Colon Cancer
Experimental: as §1, §2

SW-620 = assay: NCI60 growth inhibition, SW-620; details: Colon Cancer; also: test concentration or dose not given here
Experimental: as §1, §2

SK-MEL-2 = assay: NCI60 growth inhibition, SK-MEL-2; details: Melanoma; also: test concentration or dose not given here
Experimental: as §1, §2

HCT-116 = assay: NCI60 growth inhibition, HCT-116; details: Colon Cancer
Experimental: as §1, §2

NCI-H322M = assay: NCI60 growth inhibition, NCI-H322M; details: Non-Small Cell Lung Cancer
Experimental: as §1, §2

RPMI-8226 = assay: NCI60 growth inhibition, RPMI-8226; details: Leukemia
Experimental: as §1, §2

U251 = assay: NCI60 growth inhibition, U251; details: CNS Cancer
Experimental: as §1, §2

NCI-H522 = assay: NCI60 growth inhibition, NCI-H522; details: Non-Small Cell Lung Cancer
Experimental: as §1, §2

CCRF-CEM = assay: NCI60 growth inhibition, CCRF-CEM; details: Leukemia
Experimental: as §1, §2

MDA-MB-231/ATCC = assay: NCI60 growth inhibition, MDA-MB-231/ATCC; details: Breast Cancer
Experimental: as §1, §2

SF-268 = assay: NCI60 growth inhibition, SF-268; details: CNS Cancer; also: test concentration or dose not given here
Experimental: as §1, §2

HT29 = assay: NCI60 growth inhibition, HT29; details: Colon Cancer
Experimental: as §1, §2

UO-31 = assay: NCI60 growth inhibition, UO-31; details: Renal Cancer
Experimental: as §1, §2

NCI-H23 = assay: NCI60 growth inhibition, NCI-H23; details: Non-Small Cell Lung Cancer
Experimental: as §1, §2

HOP-92 = assay: NCI60 growth inhibition, HOP-92; details: Non-Small Cell Lung Cancer
Experimental: as §1, §2

EKVX = assay: NCI60 growth inhibition, EKVX; details: Non-Small Cell Lung Cancer
Experimental: as §1, §2

SF-295 = assay: NCI60 growth inhibition, SF-295; details: CNS Cancer; also: test concentration or dose not given here
Experimental: as §1, §2

SK-OV-3 = assay: NCI60 growth inhibition, SK-OV-3; details: Ovarian Cancer
Experimental: as §1, §2

NCI-H460 = assay: NCI60 growth inhibition, NCI-H460; details: Non-Small Cell Lung Cancer
Experimental: as §1, §2

CAKI-1 = assay: NCI60 growth inhibition, CAKI-1; details: Renal Cancer; also: test concentration or dose not given here
Experimental: as §1, §2

IGROV1 = assay: NCI60 growth inhibition, IGROV1; details: Ovarian Cancer
Experimental: as §1, §2

MALME-3M = assay: NCI60 growth inhibition, MALME-3M; details: Melanoma
Experimental: as §1, §2

OVCAR-3 = assay: NCI60 growth inhibition, OVCAR-3; details: Ovarian Cancer
Experimental: as §1, §2

T-47D = assay: NCI60 growth inhibition, T-47D; details: Breast Cancer
Experimental: as §1, §2

OVCAR-5 = assay: NCI60 growth inhibition, OVCAR-5; details: Ovarian Cancer
Experimental: as §1, §2

NCI-H226 = assay: NCI60 growth inhibition, NCI-H226; details: Non-Small Cell Lung Cancer; also: test concentration or dose not given here
Experimental: as §1, §2

BT-549 = assay: NCI60 growth inhibition, BT-549; details: Breast Cancer
Experimental: as §1, §2

K-562 = assay: NCI60 growth inhibition, K-562; details: Leukemia
Experimental: as §1, §2

DU-145 = assay: NCI60 growth inhibition, DU-145; details: Prostate Cancer
Experimental: as §1, §2

HCC-2998 = assay: NCI60 growth inhibition, HCC-2998; details: Colon Cancer
Experimental: as §1, §2

LOX IMVI = assay: NCI60 growth inhibition, LOX IMVI; details: Melanoma
Experimental: as §1, §2

SNB-19 = assay: NCI60 growth inhibition, SNB-19; details: CNS Cancer; also: test concentration or dose not given here
Experimental: as §1, §2

SNB-75 = assay: NCI60 growth inhibition, SNB-75; details: CNS Cancer; also: test concentration or dose not given here
Experimental: as §1, §2

ACHN = assay: NCI60 growth inhibition, ACHN; details: Renal Cancer
Experimental: as §1, §2

SN12C = assay: NCI60 growth inhibition, SN12C; details: Renal Cancer
Experimental: as §1, §2

HL-60(TB) = assay: NCI60 growth inhibition, HL-60(TB); details: Leukemia
Experimental: as §1, §2

TK-10 = assay: NCI60 growth inhibition, TK-10; details: Renal Cancer
Experimental: as §1, §2

HOP-62 = assay: NCI60 growth inhibition, HOP-62; details: Non-Small Cell Lung Cancer; also: test concentration or dose not given here
Experimental: as §1, §2

M14 = assay: NCI60 growth inhibition, M14; details: Melanoma
Experimental: as §1, §2

SR = assay: NCI60 growth inhibition, SR; details: Leukemia
Experimental: as §1, §2

MOLT-4 = assay: NCI60 growth inhibition, MOLT-4; details: Leukemia
Experimental: as §1, §2

SF-539 = assay: NCI60 growth inhibition, SF-539; details: CNS Cancer
Experimental: as §1, §2

OVCAR-4 = assay: NCI60 growth inhibition, OVCAR-4; details: Ovarian Cancer; also: test concentration or dose not given here
Experimental: as §1, §2

786-0 = assay: NCI60 growth inhibition, 786-0; details: Renal Cancer
Experimental: as §1, §2

KM12 = assay: NCI60 growth inhibition, KM12; details: Colon Cancer; also: test concentration or dose not given here
Experimental: as §1, §2

HS 578T = assay: NCI60 growth inhibition, HS 578T; details: Breast Cancer
Experimental: as §1, §2

O=C1c2cccnc2C(=O)c2nc3cc(N4CCN(C5CC5)CC4)ccc3nc21 [Compound 49, 9-(4-cyclopropylpiperazin-1-yl)pyrido[2,3-b]phenazine-5,12-dione]
Growth inhibition (% control) GIPRCNT (PC-3): 11.58 % control | Growth inhibition (% control) GIPRCNT (SK-MEL-28): −76.8851 % control | Growth inhibition (% control) GIPRCNT (NCI/ADR-RES): 20.15 % control | Growth inhibition (% control) GIPRCNT (MCF7): −56.1231 % control | Growth inhibition (% control) GIPRCNT (UACC-257): −84.4508 % control | Growth inhibition (% control) GIPRCNT (HCT-15): −58.81 % control | Growth inhibition (% control) GIPRCNT (A549/ATCC): −53.27 % control | Growth inhibition (% control) GIPRCNT (SK-MEL-5): −98.1218 % control | Growth inhibition (% control) GIPRCNT (MDA-MB-435): −87.4148 % control | Growth inhibition (% control) GIPRCNT (A498): −88.1317 % control | Growth inhibition (% control) GIPRCNT (MDA-MB-468): −21.9933 % control | Growth inhibition (% control) GIPRCNT (UACC-62): −98.5184 % control | Growth inhibition (% control) GIPRCNT (COLO 205): −68.34 % control | Growth inhibition (% control) GIPRCNT (SW-620): −37.75 % control | Growth inhibition (% control) GIPRCNT (SK-MEL-2): −16.262 % control | Growth inhibition (% control) GIPRCNT (HCT-116): 0.8509 % control | Growth inhibition (% control) GIPRCNT (NCI-H322M): −96.67 % control | Growth inhibition (% control) GIPRCNT (RPMI-8226): 25.33 % control | Growth inhibition (% control) GIPRCNT (U251): −32.64 % control | Growth inhibition (% control) GIPRCNT (NCI-H522): −50.54 % control | Growth inhibition (% control) GIPRCNT (CCRF-CEM): 26.17 % control | Growth inhibition (% control) GIPRCNT (MDA-MB-231/ATCC): 15.11 % control | Growth inhibition (% control) GIPRCNT (SF-268): 12.46 % control | Growth inhibition (% control) GIPRCNT (HT29): −21.31 % control | Growth inhibition (% control) GIPRCNT (UO-31): −99.9594 % control | Growth inhibition (% control) GIPRCNT (NCI-H23): −56.52 % control | Growth inhibition (% control) GIPRCNT (HOP-92): 62.46 % control | Growth inhibition (% control) GIPRCNT (EKVX): 27.37 % control | Growth inhibition (% control) GIPRCNT (SF-295): −88.89 % control | Growth inhibition (% control) GIPRCNT (SK-OV-3): −78.6244 % control | Growth inhibition (% control) GIPRCNT (NCI-H460): −54.12 % control | Growth inhibition (% control) GIPRCNT (CAKI-1): −5.268 % control | Growth inhibition (% control) GIPRCNT (IGROV1): −13.7639 % control | Growth inhibition (% control) GIPRCNT (MALME-3M): −100 % control | Growth inhibition (% control) GIPRCNT (OVCAR-3): −1.5625 % control | Growth inhibition (% control) GIPRCNT (T-47D): 22.46 % control | Growth inhibition (% control) GIPRCNT (OVCAR-5): −82.2933 % control | Growth inhibition (% control) GIPRCNT (NCI-H226): −49.1 % control | Growth inhibition (% control) GIPRCNT (BT-549): −93.6913 % control | Growth inhibition (% control) GIPRCNT (K-562): 0.8659 % control | Growth inhibition (% control) GIPRCNT (DU-145): −75.9298 % control | Growth inhibition (% control) GIPRCNT (HCC-2998): −80.83 % control | Growth inhibition (% control) GIPRCNT (LOX IMVI): −46.5487 % control | Growth inhibition (% control) GIPRCNT (SNB-19): −81.52 % control | Growth inhibition (% control) GIPRCNT (SNB-75): −64.69 % control | Growth inhibition (% control) GIPRCNT (ACHN): −35.0589 % control | Growth inhibition (% control) GIPRCNT (SN12C): −94.7287 % control | Growth inhibition (% control) GIPRCNT (HL-60(TB)): −43.09 % control | Growth inhibition (% control) GIPRCNT (TK-10): 0.1224 % control | Growth inhibition (% control) GIPRCNT (HOP-62): −56.64 % control | Growth inhibition (% control) GIPRCNT (M14): −91.1652 % control | Growth inhibition (% control) GIPRCNT (SR): −10.03 % control | Growth inhibition (% control) GIPRCNT (MOLT-4): 26.2 % control | Growth inhibition (% control) GIPRCNT (SF-539): −99.37 % control | Growth inhibition (% control) GIPRCNT (OVCAR-4): −87.768 % control | Growth inhibition (% control) GIPRCNT (786-0): 28.12 % control | Growth inhibition (% control) GIPRCNT (KM12): 9.272 % control | Growth inhibition (% control) GIPRCNT (HS 578T): −36.5499 % control
